From doi:10.1101/2023.11.09.566408v1 (bioRxiv, 2023)

Tests used:
[1] = assay type: in vivo, mice; settings: male, Swiss, mouse, plasma, po, 100 ug
[2] = rats, IV, cited from earlier work

## CC[C@H](C)[C@H](NC(=O)[C@@H]1CCCN1C(=O)CNC(=O)[C@H](Cc1ccccc1)NC(=O)[C@H](CC(N)=O)NC(=O)[C@H](CC(N)=O)NC(=O)[C@H](CO)NC(=O)[C@H](CO)NC(=O)[C@H](Cc1c[nH]cn1)NC(=O)[C@@H](NC(=O)[C@H](CC(C)C)NC(=O)[C@H](Cc1ccccc1)NC(=O)[C@H](CC(N)=O)NC(=O)[C@H](C)NC(=O)[C@H](CC(C)C)NC(=O)[C@H](CCCNC(=N)N)NC(=O)[C@H](CCC(N)=O)NC(=O)[C@@H](NC(=O)[C@H](C)NC(=O)[C@@H]1CSSC[C@H](NC(=O)[C@@H](N)CCCCN)C(=O)N[C@@H](CC(N)=O)C(=O)N[C@@H]([C@@H](C)O)C(=O)N[C@@H](C)C(=O)N[C@@H]([C@@H](C)O)C(=O)N1)[C@@H](C)O)C(C)C)C(=O)N[C@@H](CC(C)C)C(=O)N1CCC[C@H]1C(=O)N1CCC[C@H]1C(=O)N[C@H](C(=O)N[C@@H](CC(N)=O)C(=O)N[C@H](C(=O)NCC(=O)N[C@@H](CO)C(=O)N[C@@H](CC(N)=O)C(=O)N[C@H](C(=O)N[C@@H](Cc1ccc(O)cc1)C(N)=O)[C@@H](C)O)C(C)C)[C@@H](C)O [pramlintide]
[1]
  Tmax: 30 min
[2]; 1 μg
  plasma concentration: 1,000 pM
[2]; 10 μg
  plasmatic concentration: 10,000 pM
